In paper PMC11019550, “Potent Inhibition of E. coli DXP Synthase by a gem-Diaryl Bisubstrate Analog” (ACS Infectious Diseases, 2024):

Legend:
EcDXPS = biological target: T1, EcDXPS (Escherichia coli, UniProt P77488); experiment: DXPS-IspC coupled assay, apparent Ki on wildtype EcDXPS; assay type: biochemical; details: for Ki: read-out: Ki^app; for fold change in Ki^app relative to 1: relative to compound 1; for fold increase in Ki^app relative to 8: relative to compound 8
T1 construct: made in house
Experimental: To determine inhibitor potency, we used the DXPS-DXP reductoisomerae (DXPS-IspC) coupled assay to measure the activity of recombinant purified EcDXPS[24],[25],[31],[44],[50] in the presence of inhibitors. Reactions were initiated by the addition of substrates following a short preincubation of the inhibitor with enzymes, and initial velocities were determined by monitoring reduced nicotinamide adenine dinucleotide phosphate (NADPH) absorbance at 340 nm. Apparent Ki values were determined by fitting initial velocity data to the Morrison equation,[64],[65] which accounts for the tight-binding nature (Ki^app/[E]total < 10)[66] of inhibitors included in this study and allows for rigorous comparison of inhibitor potencies. […] Inhibitor activities were rationalized based on the predictions made from molecular docking of the corresponding PLThDP adducts into the DXPS active site.
All compounds in this study were evaluated as DXPS inhibitors using the DXPS-IspC coupled assay as previously reported.[24] […] The DXPS reaction was initiated by the addition of substrates (50 μM pyruvate and 500 μM D-GAP). The initial rate of depletion of NADPH was monitored at 340 nm and was used to calculate the initial rate of DXP formation in the presence or absence of inhibitor. Initial rates of DXP formation were plotted as a function of [inhibitor], and Ki^app was determined by fitting the data to the Morrison equation (eq 1)[64],[65] in GraphPad Prism. This approach was deemed appropriate as the concentration of free inhibitor cannot be assumed to remain constant for most of these analogs in which Ki^app values approach the concentration of DXPS.[88],[89] Error is reported as standard deviation from three replicates. Active enzyme concentration ([E]T) was determined following Copeland’s method using 8 (Figure S2B).[88]
The coupled assay was initiated by adding 20 μL of a 10× substrate stock to the preincubated E + I mixture to give a final volume of 200 μL. The final concentration of D-GAP was held constant at 500 μM, and [pyruvate] was added to final concentrations between 0 and 250 μM. The initial rate of NADPH depletion in the IspC-coupled reaction was monitored at 340 nm and was used to calculate the initial rate of DXP formation in the presence or absence of inhibitor. Initial rates were plotted as a function of [pyruvate]. […] Model discrimination analysis employing the Akaike information criterion was performed as well as Lineweaver–Burk analysis to determine the mixed model as the best fit. In all cases, error bars represent the standard deviation from three replicates.

[1] = test system: porcine pyruvate dehydrogenase (PDH) E1 subunit; experiment: Inhibition of porcine pyruvate dehydrogenase (PDH); assay type: biochemical; details: DXPS over porcine PDH
Description: As noted, DXPS has a large active site and follows a mechanism requiring ternary complex formation, distinct from other ThDP-dependent pyruvate decarboxylases. We hypothesized that the sterically demanding scaffold of 8, predicted to engage both substrate binding sites, should display selectivity for DXPS. In a preliminary assessment, we tested 8 as an inhibitor of porcine pyruvate dehydrogenase (PDH) E1 subunit. […] For comparison, the selectivity ratio for 1 was estimated to be >15,000-fold for DXPS over porcine PDH.
Figure S5. Evaluation of inhibitory activity of 8 against mammalian porcine pyruvate dehydrogenase (PDH). Porcine PDH (0.01 U/mL) and inhibitor (8 or MAP positive control) were preincubated for 10 minutes at 25 °C in enzyme buffer (2 mM MgCl2, 5 mM L-cysteine, 1 mM ThDP, 300 μM TCEP, 100 mM HEPES pH 8, 2.5 mM NAD +, and 100 μM coenzyme A). The reaction was initiated by addition of pyruvate (60 μM). The change in absorbance at 340 nm over time was measured and used to calculate the initial rate of NADH formation. The % activity of PDH in the presence of 8 or MAP was plotted using GraphPad Prism version 9. There is 21% inhibition of PDH activity observed in the presence of compound 8 at a concentration of 1 mM.
Experiments were performed in triplicate. Error bars represent standard error.
Figure S6. Replicate progress curves for DXP formation in the presence or absence of inhibitors 8 or 10 with EcDXPS. A) Progress curves for formation of DXP in the presence of 8 display time-dependence of inhibition. B) Progress curves for formation of DXP in the presence of descarboxyl […]

R99A EcDXPS = biological target: T2, R99A EcDXPS (Escherichia coli, UniProt P77488, R99A); experiment: Circular dichroism titration (PLThDP formation, apparent KD) on R99A EcDXPS; assay type: binding
T2 construct: made in house
Experimental: (§1) CD titrations of 8 and 10 onto WT, R99A, and R478A EcDXPS variants were conducted at 25 °C under aerobic conditions in 1.5 mL solutions containing 30 μM EcDXPS in 50 mM HEPES pH 8, 100 mM NaCl, 1 mM MgCl2, and 0.2 mM ThDP. Scans were obtained from 280 to 400 nm with a 0.5 s averaging time and 1 nm step following a titration of inhibitor (8: 0.25–30 μM on WT, 0.5–30 μM on R99A and R478A; 10 2.5–30 μM on WT, R99A, and R478A), with a 5 min preincubation of inhibitor with DXPS prior to scanning. […] The CD signals at 294 nm determined from the difference spectra obtained by subtracting the signal of E-ThDP at 294 nm were plotted as a function of [inhibitor] and fit to (1) the quadratic equation described in eq 2 (8 on WT DXPS), where E is the concentration of DXPS taking into account stoichiometric binding and CDmax is the maximal CD signal, or (2) a one-site specific binding curve (all other experiments) using GraphPad Prism Version 9 to calculate an apparent KD. Experiments were conducted in triplicate and the standard error was calculated. [drawing 2] 2
(§2) At the conclusion of the titration described above, the CD signal at 313 nm (previously characterized for LThDP) was recorded. Pyruvate (1 mM) was then added to the mixture, and a CD scan of the resulting solution was conducted as described above, to detect shifts in the CD spectrum that may correlate to LThDP formation. Experiments were conducted in triplicate.

WT EcDXPS [2] = biological target: T3, WT EcDXPS (Escherichia coli, UniProt P77488); experiment: Time-dependent inhibition, reaction progress curves on WT EcDXPS; assay type: biochemical; details: 8 at 400 or 800 nM, 10 at 1 or 100 μM
T3 construct: made in house
Experimental: To determine if 8 is also a slow-onset inhibitor of DXPS, reaction progress was monitored upon simultaneous addition of substrates (pyruvate and D-GAP) in the presence or absence of inhibitor. In the absence of inhibitor, the reaction progress curve is linear. […] To assess the importance of the carboxyl group of 8, we evaluated descarboxy analog 10 in the same manner.
EcDXPS (100 nM) and IspC (2 μM) were preincubated in enzyme reaction buffer (100 mM HEPES pH 8, 2 mM MgCl2, 5 mM NaCl, 1 mM ThDP, and 200 μM NADPH) with 250 μM D-GAP for 10 min at 25 °C. The reaction was initiated by the addition of pyruvate (1 mM) and inhibitor (400 nM and 800 nM 8; 1 μM and 100 μM 10). The reaction mixture was incubated at 25 °C, and the absorbance of NADPH at 340 nm was monitored. The change in the absorbance of NADPH over time was used to calculate [DXP] (μM) produced over time. Experiments were performed in triplicate.

WT EcDXPS [3] = biological target: T3, WT EcDXPS; experiment: Circular dichroism titration (PLThDP formation, apparent KD) on WT EcDXPS; assay type: binding
Description: The X-ray structure obtained from cocrystallization of DrDXPS with 1 (Figure 2) indicates the formation of the PLThDP adduct by reaction of the acetylphosphonate mimic of pyruvate with the C2 carbanion of ThDP. We reasoned that 8 should also engage the pyruvate binding site and react with ThDP to form a PLThDP adduct. Circular dichroism (CD) is a powerful tool that can be used to detect LThDP and LThDP-like adducts on thiamin-dependent enzymes,[56],[67]−[75] including DXPS.[31],[36],[43],[44],[49]−[52],[76] DXPS bound to ThDP (E-ThDP) is characterized by a CD λmin at 320 nm, indicative of the 4′-aminopyrimidine (AP) tautomer of ThDP (Figure 8A). Upon addition of pyruvate to E-ThDP, a new positive signal emerges at 313 nm, indicating the formation of LThDP in its 1′,4′-iminopyrimidine (IP) form. Similarly, upon addition of AP-based inhibitors to E-ThDP, the E-PLThDP adduct is formed, characterized by an increasing, broad CD signal.[69],[77],[78] Determination of apparent KD of PLThDP by plotting the CD signal corresponding to PLThDP versus [MAP] has been used as a proxy for PLThDP affinity.[77],[78] To confirm that 8 reacts with ThDP to form PLThDP in the DXPS active site, the change in CD signal upon addition of 8 (0.25–30 μM) to EcDXPS (30 μM) was measured. […] Plotting the CD signal at 294 nm versus affords a curve that approaches the limiting asymptotes defined by infinitely tight binding (Figure 8C),[79],[80] which is expected for this nanomolar inhibitor under the conditions of high [DXPS] required for this method. Since in this case [DXPS] ≫ KD^app, an accurate determination of KD^app is not possible, and data were fit to a quadratic equation to give an estimated upper limit for the value of KD^app (≤0.04 ± 0.01 μM). Addition of 10 to DXPS also results in an increased, broad CD signal (Figure S7A), indicating PLThDP formation. […]
as §1, with “ThDP.” for “ThDP. Scans were obtained from 280 to 400 nm with a 0.5 s averaging time and 1 nm step following a titration of inhibitor (8: 0.25–30 μM on WT, 0.5–30 μM on R99A and R478A; 10 2.5–30 μM on WT, R99A, and R478A), with a 5 min preincubation of inhibitor with DXPS prior to scanning.”, “[drawing 2] 2” left out
At the conclusion of the titration described above, the CD signal at 313 nm (previously characterized for LThDP) was recorded. […]

R478A EcDXPS = biological target: T4, R478A EcDXPS (Escherichia coli, UniProt P77488, R478A); experiment: Circular dichroism titration (PLThDP formation, apparent KD) on R478A EcDXPS; assay type: binding
T4 construct: made in house
Experimental: as §1, §2

CC(=O)P(=O)(O)OCCc1cn([C@@H](CO)Cc2ccccc2)nn1 [Compound 18]
Ki (EcDXPS): 13300 ± 1400 nM

CC(=O)P(=O)(O)OCCc1cn(C(c2ccccc2)c2ccccc2)nn1.CCN(CC)CC [Compound 20]
Ki (EcDXPS): 5420 ± 40 nM
fold change in Ki^app relative to 1 (EcDXPS): ~21 fold

CC(=O)P(=O)(O)OCCc1cn([C@H](COCc2ccccc2)C(=O)O)nn1 [Compound 4]
Ki (EcDXPS): 1420 ± 50 nM
fold change in Ki^app relative to 1 (EcDXPS): ~5 fold

CC(=O)P(=O)(O)OCCc1cn([C@H](CC2CCCCC2)C(=O)O)nn1 [Compound 14]
Ki (EcDXPS): 260 ± 60 nM

COC(=O)C(Cc1ccccc1)(Cc1ccccc1)n1cc(CCOP(=O)(O)C(C)=O)nn1 [Compound 11]
Ki (EcDXPS): 2900 ± 500 nM
fold increase in Ki^app relative to 8 (EcDXPS): 1000 fold

CC(=O)P(=O)(O)OCCc1cn(C2(C(=O)O)CCCC2)nn1 [Compound 13]
Ki (EcDXPS): 530 ± 110 nM

CC(=O)P(=O)(O)OCCc1cn([C@H](Cc2ccccc2)C(c2ccccc2)c2ccccc2)nn1 [Compound 21]
inhibition of EcDXPS (EcDXPS; up to a concentration of 50 μM): Minimal inhibition

CC(=O)P(=O)(O)OCCc1cn([C@@H](Cc2ccccc2)C(c2ccccc2)c2ccccc2)nn1 [Compound 22]
α (mixed inhibition model) (EcDXPS; mixed inhibition model): > 1
inhibition mode (EcDXPS; model discrimination by Akaike's information criterion, varied pyruvate): mixed inhibition mode
Ki (EcDXPS): 96000 ± 10000 nM
fold change in Ki^app relative to 1 (EcDXPS): 370 fold

CC(=O)P(=O)(O)OCCc1cn([C@H](CO)Cc2ccccc2)nn1 [Compound 19]
Ki (EcDXPS): 13400 ± 1500 nM

CC(=O)P(=O)(O)OCCc1cn([C@H](Cc2ccc(-c3ccccc3)cc2)C(=O)O)nn1 [Compound 2]
Ki (EcDXPS): 8000 ± 1000 nM
fold change in Ki^app relative to 1 (EcDXPS): 30 fold

CC(=O)P(=O)(O)OCCc1cn([C@H](Cc2ccccc2)C(=O)O)nn1 [Compound 1, D-PheTrAP]
Ki (EcDXPS): 260 ± 30 nM
estimated selectivity ratio for DXPS over porcine PDH [1]: > 15,000 fold

CC(=O)P(=O)(O)OCCc1cn([C@@H](C(=O)O)c2ccccc2)nn1 [Compound 5]
Ki (EcDXPS): 2100 ± 200 nM
fold change in Ki^app relative to 1 (EcDXPS): 8 fold

CC(=O)P(=O)(O)OCCc1cn([C@H](C(=O)O)C23CC4CC(CC(C4)C2)C3)nn1 [Compound 17]
Ki (EcDXPS): 390 ± 60 nM

CC(=O)P(=O)(O)OCCc1cn([C@@H](C(=O)O)C(c2ccccc2)c2ccccc2)nn1 [Compound 6]
Ki (EcDXPS): 570 ± 120 nM

CC(=O)P(=O)(O)OCCc1cn([C@H](Cc2ccc(OCc3ccccc3)cc2)C(=O)O)nn1 [Compound 3]
Ki (EcDXPS): 4900 ± 600 nM
fold change in Ki^app relative to 1 (EcDXPS): 19 fold

CC(=O)P(=O)(O)OCCc1cn(C(Cc2ccccc2)Cc2ccccc2)nn1 [Compound 10]
Ki (EcDXPS): 11000 ± 1000 nM
fold increase in Ki^app relative to 8 (EcDXPS): ~3800 fold
Kd (R99A EcDXPS): 14.5 ± 0.7 µM
time dependence of inhibition (progress curve for DXP formation) (WT EcDXPS [2]): linear
Kd (WT EcDXPS [3]): 9 ± 1 µM
change in PLThDP CD signal upon addition of 1 mM pyruvate (WT EcDXPS [3]; WT EcDXPS 30 μM, inhibitor 30 μM): CD signal shift and an increase in amplitude
Kd (R478A EcDXPS): 6 ± 1 µM

CC(=O)P(=O)(O)OCCc1cn([C@@H](C(=O)O)C23CC4CC(CC(C4)C2)C3)nn1 [Compound 16]
Ki (EcDXPS): 360 ± 10 nM

CC(=O)P(=O)(O)OCCc1cn(C2(C(=O)O)Cc3ccccc3C2)nn1 [Compound 12]
Ki (EcDXPS): 290 ± 40 nM

CC(=O)P(=O)(O)OCCc1cn([C@@H](C(=O)O)C2CCCCC2)nn1 [Compound 15]
Ki (EcDXPS): 1600 ± 200 nM
fold change in Ki^app relative to 1 (EcDXPS): 6 fold

CC(=O)P(=O)(O)OCCc1cn([C@H](Cc2cccc3ccccc23)C(=O)O)nn1 [Compound 7]
Ki (EcDXPS): 600 ± 60 nM
